The record followed here is patent US11505798B2, “Methods and compositions for treating inflammatory diseases” (The Regents of the University of California, priority 2019, dated 2022).

This test concerns GAPLINC. Description: qPCR of GAPLINC in MDMs pretreated with NF-κB inhibitor, then LPS stimulation. It counts as cell-based, human. Particulars: MDMs pretreated with 10 uM, LPS 200 ng/ml for 6 h, vs DMSO. The text has this:
FIGS. 14A-14I show monocytes isolated from human PBMCs and differentiated into macrophages were transfected with control or GAPLINC siRNA. […] Data from RNA-seq performed in biological duplicates. FIG. 14C: GAPLINC isoforms in MDMs as determined by Nanopore-based R2C2 sequencing. Data from Nanopore-sequencing performed in biological duplicates. FIG. 14D: Table representing read counts and percent of each GAPLINC isoform. FIG. 14E: Bi-directional vector expressing GFP-Zeocin on one side and GAPLINC on the other side. FIGS. 14F and 14G: qPCR analysis of GAPLINC expression in THP-1 cells expressing ectopic GAPLINC or empty-vector control. Levels of IL6 were quantified following stimulation with LPS (200 ng/ml) for 6 h; data pooled from three independent experiments. *p<0.05. FIG. 14H: qPCR analysis of GAPLINC in MDMs (n=3) pretreated with DMSO or BAY-7082 (10 uM), followed by LPS stimulation (200 ng/ml) for 6 h; data pooled from three independent experiments. *p<0.05. FIG. 14I: ATAC-seq analysis of monocytes and macrophages, untreated and treated with LPS (200 ng/ml) for 1 h, 6 h and 18 h.
Next, we examined GAPLINC levels in primary MDMs in response to inflammation. […] Induction of positive control inflammatory genes TNFα, IL6, and CCL5 was confirmed (FIGS. 16B-16D). […]

In the case of `Cc1ccc(S(=O)(=O)/C=C/C#N)cc1` [BAY11-7082], the “downregulation of GAPLINC upon LPS stimulation” value is “impaired relative to control”.
